Results as given in US9187458B2, “Cyanoquinoline derivatives” (Tianjin Hemay Bio-Tech Co., LTD., priority 2010, dated 2015).

Biological target: T1, Her2 kinase (Homo sapiens, UniProt P04626)
T1 construct: purchased Cell Signaling Tech #7382
Assay: Inhibition Activity Assay on Her2 Enzyme (ELISA, PGT substrate)
Type: biochemical
Conditions: 8 min at 4° C., read-out: Inhibition Activity (EC50) on Her-2
Procedure: Inhibition Activity Assay on Her2 Enzyme
1. Her2 kinase, Cell Signaling Tech, #7382, Lot. 2, reserved at −80° C.;
2. PBST: PBS+0.05% (v/v) Tween 20;
3. Confining liquid: 3% of BSA in PBS;
4. HEPEs buffer (2×): 50 mM HEPEs, 20 mM MgCl2, 0.1 mM MnCl2, 0.2 mM Na3VO4, adjusted to pH of 7.4 with NaOH;
5. PGT, Sigma, Cat#P0275): 2 mg/ml of stock solution was prepared by dissolving PBS, reserved at −20° C.
6. ATP: […] of stock solution was prepared by dissolving ddH2O, reserved at −20° C.;
7. Mice anti-phosphorylation tyrosine-HRP: Invitrogen-037720, 0.5 mg/ml, reserved at 4° C.;
8. TMB: Cell Signaling Tech, Cat #7004L;
9. DTT: 2.5 M of stock solution was prepared with ddH2O, reserved at −20° C. Before use, 2×HEPEs buffer was added in the solution to the final concentration of 1.25 mM.
1. 2 mg/ml of PGT was diluted with PBS to 0.2 mg/ml. 60 μl of the resulting solution was added in each well. The elisa plate was placed in a refrigerator at 4° C. and coated overnight;
2. The coating solution was discarded to stop the coating. The plate was washed four times with PBS, and then beaten to dryness;
3. The elisa plate was placed in a refrigerator at 4° C., drained out and stood for 3h.
4. […] of aqueous solution of each compound was diluted with ddH2O to a desirable concentration. Then, the solution was added in the corresponding elisa well by 25 μl/well;
5. 2 nM of ATP solution was diluted with ddH2O to 25 folds and then sufficiently mixed. The resulting solution was separately added in each elisa well by 25 μl per well (25 μl ddH2O was added in the negative control);
6. Her2 kinase was diluted with 2×TKB to 800 folds. The resulting solution was added in the elisa well by 50 μl per well. Then, the enzyme reaction began. Moreover, the elisa plate was immediately placed in a micro-oscillator. The reaction is carried out for 8 min at the temperature of 4° C.;
7. 2% of SDS was added in the elisa well to stop the reaction by adding 100 μl of SDS in each well. The solution was sufficiently mixed on the micro-oscillator to sufficiently mix for about 5 min;
8. The reaction solution was sucked out. The plate was washed four times with PBST. After the plate was beaten to dryness, 0.25 μg/ml of mice anti-phosphorylation tyrosine-HRP which was diluted with confining liquid was added in the plate by 100 μl per well, and then reacted for 30 min at the room temperature.
9. The antibody reaction solution was sucked out. The plate was washed six times with PBST. After the plate was beaten to dryness, TMB peroxidase substrate was added in the plate with 100 μl/well, and then reacted in the dark for 15 min at the room temperature;
10. 100 μl of 2N H2SO4 was added in the solution to stop the chromogenic reaction. After the bubbles were cleansed, the solution was measured in elisa at 450 nm.
OD values were converted in relative inhibition ratios according to following formula: Relative inhibition ratio=[1−(experiment values−NC mean values)/(PC mean values−NC mean values)]×100%

T1 sequence (P04626 676-1255 limits assumed): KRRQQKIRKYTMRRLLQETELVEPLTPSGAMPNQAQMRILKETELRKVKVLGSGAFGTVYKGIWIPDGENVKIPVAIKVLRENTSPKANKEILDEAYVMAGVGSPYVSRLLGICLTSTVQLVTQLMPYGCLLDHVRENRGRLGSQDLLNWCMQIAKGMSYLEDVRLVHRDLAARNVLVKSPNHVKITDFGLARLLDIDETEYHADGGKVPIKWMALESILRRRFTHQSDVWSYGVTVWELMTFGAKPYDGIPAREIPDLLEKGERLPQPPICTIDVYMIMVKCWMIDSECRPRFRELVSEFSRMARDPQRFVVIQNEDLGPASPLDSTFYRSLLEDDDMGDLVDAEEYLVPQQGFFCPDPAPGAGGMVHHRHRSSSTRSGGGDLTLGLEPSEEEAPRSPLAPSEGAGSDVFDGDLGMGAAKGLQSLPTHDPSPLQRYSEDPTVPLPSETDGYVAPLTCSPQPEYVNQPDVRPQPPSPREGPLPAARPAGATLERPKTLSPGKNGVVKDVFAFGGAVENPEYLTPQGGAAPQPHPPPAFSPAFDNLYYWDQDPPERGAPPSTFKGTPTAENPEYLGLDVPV

N#Cc1cnc2cc(OC3CCOC3)c(NC(=O)C=C3CCNCC3)cc2c1Nc1ccc(F)c(Cl)c1 (stereo not shown) [Example 42, N-(4-(3-CHLORO-4-FLUOROPHENYLAMINO)-3-CYANO-7-(TETRAHYDROFURAN-3-YL-OXY)QUINOLIN-6-YL)-2-(PIPERIDIN-4-YLIDENE)ACETAMIDE]
EC50: 291 nM
